In PubChem BioAssay AID248 (DTP/NCI, 2004):
Toxic doses and inconclusive results are not listed. Rule as the data show it: active = T/C of 150% or more; inactive = T/C below 125%.

Test system: L1210 leukemia ip in BDF1 mice, survival T/C
Experiment: NCI In Vivo Anticancer Drug Screen. Data for tumor model L1210 Leukemia (intraperitoneal) in B6D2F1 (BDF1) mice
Conditions: higher = longer survival
Summary of the method: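 Transplanted-tumor mice were given test agent; controls received vehicle only. Survival readings from the two groups were divided (treated over control).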

[1] = endpoint: mean survival time, dose: 100.0 mg/kg/injection, schedule: Q04DX003 (ip), vehicle: saline with Tween-80
[2] = endpoint: mean survival time, dose: 200.0 mg/kg/injection, schedule: Q04DX003 (ip), vehicle: saline with Tween-80
[3] = endpoint: mean survival time, dose: 400.0 mg/kg/injection, schedule: Q04DX003 (ip), vehicle: saline with Tween-80
[4] = endpoint: mean survival time, dose: 100.0 mg/kg/injection, schedule: Q01DX001 (ip), vehicle: saline
[5] = endpoint: mean survival time, dose: 200.0 mg/kg/injection, schedule: Q01DX001 (ip), vehicle: saline
[6] = endpoint: mean survival time, dose: 400.0 mg/kg/injection, schedule: Q01DX001 (ip), vehicle: saline
[7] = endpoint: mean survival time, dose: 25.0 mg/kg/injection, schedule: Q01DX009 (ip), vehicle: saline with Tween-80
[8] = endpoint: mean survival time, dose: 50.0 mg/kg/injection, schedule: Q01DX009 (ip), vehicle: saline with Tween-80
[9] = endpoint: mean survival time, dose: 100.0 mg/kg/injection, schedule: Q01DX009 (ip), vehicle: saline with Tween-80

Measured: T/C

Cc1ccc2c(c1)P(=O)(O)c1cc(Cl)ccc1O2
inactive: endpoint: mean survival time, dose: 50.0 mg/kg/injection, schedule: Q01DX009 (ip), vehicle: saline 98 % of control | endpoint: mean survival time, dose: 100.0 mg/kg/injection, schedule: Q01DX009 (ip), vehicle: saline 100 % of control | endpoint: mean survival time, dose: 200.0 mg/kg/injection, schedule: Q01DX009 (ip), vehicle: saline 102 % of control | endpoint: mean survival time, dose: 400.0 mg/kg/injection, schedule: Q01DX009 (ip), vehicle: saline 98 % of control | endpoint: median survival time, dose: 64.8 mg/kg/injection, schedule: Q01DX009 (ip), vehicle: water 109 % of control | endpoint: median survival time, dose: 108.0 mg/kg/injection, schedule: Q01DX009 (ip), vehicle: water 107 % of control | endpoint: median survival time, dose: 130.0 mg/kg/injection, schedule: Q04DX003 (ip), vehicle: water 103 % of control | endpoint: median survival time, dose: 180.0 mg/kg/injection, schedule: Q01DX009 (ip), vehicle: water 109 % of control | endpoint: median survival time, dose: 216.0 mg/kg/injection, schedule: Q04DX003 (ip), vehicle: water 102 % of control | endpoint: median survival time, dose: 300.0 mg/kg/injection, schedule: Q01DX009 (ip), vehicle: water 112 % of control | endpoint: median survival time, dose: 360.0 mg/kg/injection, schedule: Q04DX003 (ip), vehicle: water 103 % of control

N#CC(c1ccccc1)c1cccnc1 (stereo not given)
inactive: endpoint: mean survival time, dose: 100.0 mg/kg/injection, schedule: Q01DX001 (ip), vehicle: carboxymethylcellulose (CMC) 94 % of control | endpoint: mean survival time, dose: 200.0 mg/kg/injection, schedule: Q01DX001 (ip), vehicle: carboxymethylcellulose (CMC) 92 % of control | endpoint: mean survival time, dose: 400.0 mg/kg/injection, schedule: Q01DX001 (ip), vehicle: carboxymethylcellulose (CMC) 89 % of control

N#CCCN(CCC#N)C(=O)Cl
inactive: endpoint: mean survival time, dose: 100.0 mg/kg/injection, schedule: Q01DX001 (sc), vehicle: olive oil, sesame oil, peanut oil 97 % of control | endpoint: mean survival time, dose: 200.0 mg/kg/injection, schedule: Q01DX001 (sc), vehicle: olive oil, sesame oil, peanut oil 97 % of control | endpoint: mean survival time, dose: 400.0 mg/kg/injection, schedule: Q01DX001 (sc), vehicle: olive oil, sesame oil, peanut oil 98 % of control

NCCCNCCNCCCN
inactive: endpoint: mean survival time, dose: 100.0 mg/kg/injection, schedule: Q04DX002 (ip), vehicle: saline 98 % of control | endpoint: mean survival time, dose: 200.0 mg/kg/injection, schedule: Q04DX002 (ip), vehicle: saline 98 % of control

O=C1OC(=O)C2C3CC(C(Br)C3Br)C12 (stereo not given)
inactive: [1] 102 % of control | [2] 98 % of control | [3] 101 % of control

S=C(c1cccs1)N1CCN(c2ccccc2)CC1
inactive: [4] 97 % of control | [5] 95 % of control | [6] 97 % of control

O=C(Nc1cccc(O)c1)C(O)C(O)C(O)C(O)CO (stereo not given)
inactive: endpoint: mean survival time, dose: 100.0 mg/kg/injection, schedule: Q04DX003 (ip), vehicle: saline 97 % of control | endpoint: mean survival time, dose: 200.0 mg/kg/injection, schedule: Q04DX003 (ip), vehicle: saline 94 % of control | endpoint: mean survival time, dose: 400.0 mg/kg/injection, schedule: Q04DX003 (ip), vehicle: saline 91 % of control

CCOC(=O)C(C#N)S(C)(=O)=O (stereo not given)
inactive: [4] 89 % of control | [5] 95 % of control

CCOC(=O)C1=C(Nc2ccccc2)CSC1
inactive: endpoint: mean survival time, dose: 25.0 mg/kg/injection, schedule: Q01DX009 (ip), vehicle: water 100 % of control | endpoint: mean survival time, dose: 50.0 mg/kg/injection, schedule: Q01DX009 (ip), vehicle: water 101 % of control | endpoint: mean survival time, dose: 100.0 mg/kg/injection, schedule: Q01DX009 (ip), vehicle: water 94 % of control | endpoint: mean survival time, dose: 200.0 mg/kg/injection, schedule: Q01DX009 (ip), vehicle: water 102 % of control | endpoint: mean survival time, dose: 400.0 mg/kg/injection, schedule: Q01DX009 (ip), vehicle: water 89 % of control

CCCC(CN(C)C)C(=O)c1ccccc1 (stereo not given)
inactive: [7] 93 % of control | endpoint: mean survival time, dose: 25.0 mg/kg/injection, schedule: Q04DX002 (ip), vehicle: saline with Tween-80 100 % of control | [8] 89 % of control | endpoint: mean survival time, dose: 50.0 mg/kg/injection, schedule: Q04DX002 (ip), vehicle: saline with Tween-80 93 % of control | [9] 96 % of control | endpoint: mean survival time, dose: 100.0 mg/kg/injection, schedule: Q04DX002 (ip), vehicle: saline with Tween-80 93 % of control

C/C=C1\CN2CCC34CC5C6CC7c8c(c9ccccc9n8C)CC(C6COC5(C)OC35C2CC1C(C(=O)OC)N5c1ccccc14)N7C (stereo not given)
inactive: [1] 87 % of control

BrC1C2CCC(C2)C1Br (stereo not given)
inactive: [4] 102 % of control | [5] 100 % of control | [6] 100 % of control

CN(C)/C=N/NC(=O)C(O)c1ccccc1 (stereo not given)
inactive: [1] 116 % of control | [2] 103 % of control | [3] 111 % of control

CCOc1ccccc1-c1nc2ccccc2s1
inactive: endpoint: mean survival time, dose: 100.0 mg/kg/injection, schedule: Q04DX003 (ip), vehicle: DMSO 89 % of control | endpoint: mean survival time, dose: 200.0 mg/kg/injection, schedule: Q04DX003 (ip), vehicle: DMSO 89 % of control | endpoint: mean survival time, dose: 400.0 mg/kg/injection, schedule: Q04DX003 (ip), vehicle: DMSO 103 % of control

O=S(CS(=O)c1ccccc1)c1ccccc1 (stereo not given)
inactive: [4] 100 % of control | [5] 94 % of control | [6] 100 % of control

COc1ccc(CNCC(=O)OCc2ccccc2)cc1
inactive: [8] 91 % of control | [9] 100 % of control | [1] 102 % of control | [2] 101 % of control

CCCCCCCCCCCC(=O)Nc1ccc(O)cc1
inactive: endpoint: mean survival time, dose: 25.0 mg/kg/injection, schedule: Q01DX009 (ip), vehicle: gum acacia 93 % of control | endpoint: mean survival time, dose: 50.0 mg/kg/injection, schedule: Q01DX009 (ip), vehicle: gum acacia 93 % of control | endpoint: mean survival time, dose: 100.0 mg/kg/injection, schedule: Q01DX009 (ip), vehicle: gum acacia 96 % of control | endpoint: mean survival time, dose: 100.0 mg/kg/injection, schedule: Q04DX003 (ip), vehicle: gum acacia 88 % of control | endpoint: mean survival time, dose: 200.0 mg/kg/injection, schedule: Q01DX009 (ip), vehicle: gum acacia 92 % of control | endpoint: mean survival time, dose: 200.0 mg/kg/injection, schedule: Q04DX003 (ip), vehicle: gum acacia 86 % of control | endpoint: mean survival time, dose: 400.0 mg/kg/injection, schedule: Q01DX009 (ip), vehicle: gum acacia 92 % of control | endpoint: mean survival time, dose: 400.0 mg/kg/injection, schedule: Q04DX003 (ip), vehicle: gum acacia 95 % of control

CCCCCCCC(O)CCC(=O)NN (stereo not given)
inactive: [7] 98 % of control | [8] 102 % of control | [9] 106 % of control

CC(=O)Nc1cc2c(cc1Cl)-c1ccc(F)cc1C2=O
inactive: endpoint: mean survival time, dose: 100.0 mg/kg/injection, schedule: Q04DX003 (ip), vehicle: Klucel (hydroxypropylcellulose) (HPC) 97 % of control | endpoint: mean survival time, dose: 200.0 mg/kg/injection, schedule: Q04DX003 (ip), vehicle: Klucel (hydroxypropylcellulose) (HPC) 103 % of control | endpoint: mean survival time, dose: 400.0 mg/kg/injection, schedule: Q04DX003 (ip), vehicle: Klucel (hydroxypropylcellulose) (HPC) 105 % of control

Cc1ccc(S(=O)(=O)OCCCOS(=O)(=O)c2ccc(C)cc2)cc1
inactive: [1] 96 % of control | [2] 102 % of control | [3] 98 % of control

CCCCCCCCCCCc1nc(N)nc(NCCCC)n1
inactive: endpoint: mean survival time, dose: 12.5 mg/kg/injection, schedule: Q01DX009 (ip), vehicle: Klucel (hydroxypropylcellulose) (HPC) 97 % of control | endpoint: mean survival time, dose: 25.0 mg/kg/injection, schedule: Q01DX009 (ip), vehicle: Klucel (hydroxypropylcellulose) (HPC) 96 % of control | endpoint: mean survival time, dose: 25.0 mg/kg/injection, schedule: Q04DX002 (ip), vehicle: Klucel (hydroxypropylcellulose) (HPC) 93 % of control | endpoint: mean survival time, dose: 50.0 mg/kg/injection, schedule: Q01DX009 (ip), vehicle: Klucel (hydroxypropylcellulose) (HPC) 86 % of control | endpoint: mean survival time, dose: 50.0 mg/kg/injection, schedule: Q04DX002 (ip), vehicle: Klucel (hydroxypropylcellulose) (HPC) 96 % of control | endpoint: mean survival time, dose: 200.0 mg/kg/injection, schedule: Q04DX002 (ip), vehicle: Klucel (hydroxypropylcellulose) (HPC) 89 % of control | endpoint: mean survival time, dose: 400.0 mg/kg/injection, schedule: Q04DX002 (ip), vehicle: Klucel (hydroxypropylcellulose) (HPC) 89 % of control

CC1C(O)CC2CC1C2(C)C (stereo not given)
inactive: endpoint: mean survival time, dose: 50.0 mg/kg/injection, schedule: Q01DX001 (ip), vehicle: saline with Tween-80 94 % of control | endpoint: mean survival time, dose: 100.0 mg/kg/injection, schedule: Q01DX001 (ip), vehicle: saline with Tween-80 93 % of control | endpoint: mean survival time, dose: 200.0 mg/kg/injection, schedule: Q01DX001 (ip), vehicle: saline with Tween-80 102 % of control

CN(N)C(=O)Nc1ccc(Cl)c(Cl)c1
inactive: endpoint: mean survival time, dose: 75.0 mg/kg/injection, schedule: Q01DX001 (ip), vehicle: carboxymethylcellulose (CMC) 110 % of control | endpoint: mean survival time, dose: 150.0 mg/kg/injection, schedule: Q01DX001 (ip), vehicle: carboxymethylcellulose (CMC) 113 % of control

CCN(CCOC(=O)Nc1cccc(C(C)=O)c1)c1ccccc1
inactive: endpoint: mean survival time, dose: 100.0 mg/kg/injection, schedule: Q01DX009 (ip), vehicle: Klucel (hydroxypropylcellulose) (HPC) 108 % of control | endpoint: mean survival time, dose: 200.0 mg/kg/injection, schedule: Q01DX009 (ip), vehicle: Klucel (hydroxypropylcellulose) (HPC) 104 % of control | endpoint: mean survival time, dose: 400.0 mg/kg/injection, schedule: Q01DX009 (ip), vehicle: Klucel (hydroxypropylcellulose) (HPC) 106 % of control
